# From ChEMBL document CHEMBL1201862, “PubChem BioAssay data set” (2004)
#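 Dose response: 5 concentrations. Exposure: 48 h. Format: 96-well plates. Endpoint: linear interpolation; highest concentration if not reached. Abbreviation: GI50, concentration required for 50% inhibition of growth.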 The source made the active and inactive calls. No stated cut-off is given here; in the data, active = GI50 up to about 1.1 µM and inactive = higher.
# Tests used:
# Assay in all cases: NCI tumour cell line growth inhibition, 48 h
# [1] = tested on: NCI-H226
# [2] = tested on: SR
# [3] = tested on: SK-OV-3
# [4] = tested on: TK-10
# [5] = tested on: HOP-62
# [6] = tested on: SK-MEL-5
# [7] = tested on: UACC-257
# [8] = tested on: IGROV-1
# [9] = tested on: CCRF-CEM
# [10] = tested on: HCT-15
# [11] = tested on: HOP-92
# [12] = tested on: MDA-MB-435
# [13] = tested on: OVCAR-8
# [14] = tested on: EKVX
# [15] = tested on: Malme-3M
# [16] = tested on: K562
# [17] = tested on: RPMI-8226
# [18] = tested on: DU-145
# [19] = tested on: SF-295
# [20] = tested on: SNB-19
# [21] = tested on: PC-3
# [22] = tested on: HT-29
# [23] = tested on: NCI-H460
# [24] = tested on: Hs-578T
# [25] = tested on: BT-549
# [26] = tested on: SF-268
# [27] = tested on: HCT-116
# [28] = tested on: A498
# [29] = tested on: MDA-MB-231
# [30] = tested on: OVCAR-5
# [31] = tested on: T47D
# [32] = tested on: UACC-62
# [33] = tested on: SW-620
# [34] = tested on: SNB-75
# [35] = tested on: COLO 205
# [36] = tested on: NCI-H522
# [37] = tested on: LOX IMVI
# [38] = tested on: MCF7
# [39] = tested on: NCI-H23
# [40] = tested on: MDA-N
# [41] = tested on: OVCAR-4
# [42] = tested on: KM12
# [43] = tested on: SF-539
# [44] = tested on: SK-MEL-2
# [45] = tested on: MOLT-4
# [46] = tested on: 786-0
# [47] = tested on: CAKI-1
# [48] = tested on: ACHN
# [49] = tested on: SN12C
# [50] = tested on: OVCAR-3
# [51] = tested on: M14
# [52] = tested on: HCC 2998
# [53] = tested on: SK-MEL-28
# [54] = tested on: HL-60
# [55] = tested on: U-251
# [56] = tested on: A549
# [57] = tested on: NCI/ADR-RES
# [58] = tested on: UO-31
# [59] = tested on: RXF 393
structure (smiles),measurement,setting,value
C/C(=C1/N=C(c2ccccc2)OC1=O)c1ccccc1,GI50,[1],> 100 µM (inactive)
same,GI50,[2],39.5 µM (inactive)
same,GI50,[3],> 100 µM (inactive)
same,GI50,[4],87.3 µM (inactive)
same,GI50,[5],> 100 µM (inactive)
same,GI50,[6],> 100 µM (inactive)
same,GI50,[7],> 100 µM (inactive)
same,GI50,[8],68.2 µM (inactive)
same,GI50,[9],33.4 µM (inactive)
same,GI50,[10],99.1 µM
same,GI50,[11],> 100 µM (inactive)
same,GI50,[12],87.3 µM (inactive)
same,GI50,[13],> 100 µM (inactive)
same,GI50,[14],> 100 µM (inactive)
same,GI50,[15],53.2 µM (inactive)
same,GI50,[16],> 100 µM (inactive)
same,GI50,[17],23.3 µM (inactive)
same,GI50,[18],> 100 µM (inactive)
same,GI50,[19],76.2 µM (inactive)
same,GI50,[20],> 100 µM (inactive)
same,GI50,[21],> 100 µM (inactive)
same,GI50,[22],> 100 µM (inactive)
same,GI50,[23],> 100 µM (inactive)
same,GI50,[24],46.3 µM (inactive)
same,GI50,[25],> 100 µM (inactive)
same,GI50,[26],> 100 µM (inactive)
same,GI50,[27],> 100 µM (inactive)
same,GI50,[28],> 100 µM (inactive)
same,GI50,[29],> 100 µM (inactive)
same,GI50,[30],> 100 µM (inactive)
same,GI50,[31],> 100 µM (inactive)
same,GI50,[32],> 100 µM (inactive)
same,GI50,[33],57.5 µM (inactive)
same,GI50,[34],> 100 µM (inactive)
same,GI50,[35],> 100 µM (inactive)
same,GI50,[36],85.3 µM (inactive)
same,GI50,[37],33.5 µM (inactive)
same,GI50,[38],82 µM (inactive)
same,GI50,[39],> 100 µM (inactive)
same,GI50,[40],> 100 µM (inactive)
same,GI50,[41],> 100 µM (inactive)
same,GI50,[42],61.4 µM (inactive)
same,GI50,[43],48.6 µM (inactive)
same,GI50,[44],> 100 µM (inactive)
same,GI50,[45],95.1 µM (inactive)
same,GI50,[46],> 100 µM (inactive)
same,GI50,[47],> 100 µM (inactive)
same,GI50,[48],74.6 µM (inactive)
same,GI50,[49],> 100 µM (inactive)
same,GI50,[50],74.5 µM (inactive)
same,GI50,[51],> 100 µM (inactive)
same,GI50,[52],> 100 µM (inactive)
same,GI50,[53],> 100 µM (inactive)
same,GI50,[54],25.6 µM (inactive)
same,GI50,[55],> 100 µM (inactive)
same,GI50,[56],> 100 µM (inactive)
CC1OC(OC2C(O[C@@H]3C[C@@H]4CC[C@@H]5[C@H](CC[C@]6(C)[C@@H]7[C@H](C[C@@H]56)O[C@]5(CC[C@@H](C)CO5)[C@H]7C)[C@@]4(C)C[C@H]3O)OC(CO)C(OC3OC(CO)C(O)C(O)C3O)C2O)C(O)C(O)C1O (stereo partly specified),GI50,[1],1.44 µM (inactive)
same,GI50,[3],1.69 µM (inactive)
same,GI50,[5],1.83 µM (inactive)
same,GI50,[57],1.67 µM (inactive)
same,GI50,[6],1.55 µM (inactive)
same,GI50,[7],1.87 µM (inactive)
same,GI50,[8],1.14 µM (inactive)
same,GI50,[9],1.92 µM (inactive)
same,GI50,[10],2.17 µM
same,GI50,[11],2.51 µM (inactive)
same,GI50,[12],1.78 µM (inactive)
same,GI50,[13],1.52 µM (inactive)
same,GI50,[14],1.51 µM (inactive)
same,GI50,[15],1.29 µM (inactive)
same,GI50,[16],5.92 µM (inactive)
same,GI50,[17],3.17 µM (inactive)
same,GI50,[18],2.08 µM (inactive)
same,GI50,[19],1.56 µM (inactive)
same,GI50,[20],1.79 µM (inactive)
same,GI50,[21],1.52 µM (inactive)
same,GI50,[22],1.53 µM (inactive)
same,GI50,[23],1.76 µM (inactive)
same,GI50,[24],2.02 µM (inactive)
same,GI50,[25],2.23 µM (inactive)
same,GI50,[26],1.84 µM (inactive)
same,GI50,[27],3.78 µM (inactive)
same,GI50,[28],1.71 µM (inactive)
same,GI50,[29],1.8 µM (inactive)
same,GI50,[58],2.12 µM (inactive)
same,GI50,[30],1.59 µM (inactive)
same,GI50,[31],3.66 µM (inactive)
same,GI50,[59],2.01 µM (inactive)
same,GI50,[32],1.92 µM (inactive)
same,GI50,[33],1.67 µM (inactive)
same,GI50,[34],2.25 µM (inactive)
same,GI50,[35],1.74 µM (inactive)
same,GI50,[36],1.1 µM (active)
same,GI50,[38],1.85 µM (inactive)
same,GI50,[39],2.03 µM (inactive)
same,GI50,[40],1.91 µM (inactive)
same,GI50,[41],2.06 µM (inactive)
same,GI50,[42],1.98 µM (inactive)
same,GI50,[43],1.77 µM (inactive)
same,GI50,[44],1.74 µM (inactive)
same,GI50,[45],1.96 µM (inactive)
same,GI50,[46],1.73 µM (inactive)
same,GI50,[47],1.78 µM (inactive)
same,GI50,[48],1.79 µM (inactive)
same,GI50,[49],1.68 µM (inactive)
same,GI50,[50],1.65 µM (inactive)
same,GI50,[51],1.69 µM (inactive)
same,GI50,[53],1.75 µM (inactive)
same,GI50,[54],1.91 µM (inactive)
same,GI50,[55],1.81 µM (inactive)
same,GI50,[56],1.57 µM (inactive)
